The values that follow come from paper PMC8815882, “Screening the pandemic response box identified benzimidazole carbamates, Olorofim and ravuconazole as promising drug candidates for the treatment of eumycetoma” (PLoS Neglected Tropical Diseases, 2022).

For this test, the system named is M. mycetomatis genome strain MM55. The experiment in a line: CLSI M38-A2 based in vitro susceptibility screening (XTT or resazurin), growth at fixed concentration. Format: cell-based, Madurella mycetomatis. The following applies: Madurella mycetomatis; for Percent fungal survival at 100 µM: read-out: Percentage survival at 100um, 100 uM A (second replicate column).

Setting [1] is: mean of three replicates, read-out: Percentage survival at 25um, 25 uM mean.
The mark [2] stands for this setting: replicate A, read-out: Percentage survival at 25um, 25 um A.
[3] abbreviates: replicate B, read-out: Percentage survival at 25um, 25 uM B.
Where [4] appears, read: replicate C, read-out: Percentage survival at 25um, 25 uM C.
Where [5] appears, read: mean of three replicates, read-out: Percentage survival at 100um, 100 uM mean.
Setting [6] is: replicate 1, read-out: Percentage survival at 100um, 100 uM A (first replicate column).
The mark [7] stands for this setting: replicate 3, read-out: Percentage survival at 100um, 100 uM A (third replicate column).
[8] abbreviates: mean of replicates, read-out: Percentage survival at 25um, 25 uM mean.
[9] abbreviates: mean of replicates, read-out: Percentage survival at 100um, 100 uM mean.
Setting [10] is: replicate 1, read-out: Percentage survival at 100um, 100 uM A.
[11] abbreviates: replicate 2, read-out: Percentage survival at 100um, 100 uM A.
[12] abbreviates: replicate 3, read-out: Percentage survival at 100um, 100 uM A.
Setting [13] is: mean, read-out: Percentage survival at 25um, 25 uM mean.
The mark [14] stands for this setting: mean, read-out: Percentage survival at 100um, 100 uM mean.
The mark [15] stands for this setting: replicate (first column), read-out: Percentage survival at 100um, 100 uM A.
[16] abbreviates: replicate (second column), read-out: Percentage survival at 100um, 100 uM A.
Where [17] appears, read: replicate (third column), read-out: Percentage survival at 100um, 100 uM A.
Where [18] appears, read: mean of three, M. mycetomatis MM55, read-out: Percentage survival at 25um, 25 uM mean.
The mark [19] stands for this setting: replicate A, M. mycetomatis MM55, read-out: Percentage survival at 25um, 25 um A.
Setting [20] is: replicate B, M. mycetomatis MM55, read-out: Percentage survival at 25um, 25 uM B.
Where [21] appears, read: replicate C, M. mycetomatis MM55, read-out: Percentage survival at 25um, 25 uM C.
Where [22] appears, read: mean of three, M. mycetomatis MM55, read-out: Percentage survival at 100um, 100 uM mean.
The mark [23] stands for this setting: replicate 1, M. mycetomatis MM55, read-out: Percentage survival at 100um, 100 uM A (first replicate column).
[24] abbreviates: replicate 2, M. mycetomatis MM55.
Where [25] appears, read: replicate 3, M. mycetomatis MM55, read-out: Percentage survival at 100um, 100 uM A (third replicate column).
Where [26] appears, read: mean of replicates, MM55, read-out: Percentage survival at 25um, 25 uM mean.
[27] abbreviates: replicate A, MM55, read-out: Percentage survival at 25um, 25 um A.
Setting [28] is: replicate B, MM55, read-out: Percentage survival at 25um, 25 uM B.
Setting [29] is: replicate C, MM55, read-out: Percentage survival at 25um, 25 uM C.
Where [30] appears, read: mean of replicates, MM55, read-out: Percentage survival at 100um, 100 uM mean.
Setting [31] is: replicate 1, MM55, read-out: Percentage survival at 100um, 100 uM A.
The mark [32] stands for this setting: replicate 2, MM55, read-out: Percentage survival at 100um, 100 uM A.
The mark [33] stands for this setting: replicate 3, MM55, read-out: Percentage survival at 100um, 100 uM A.

Where two headings read alike, the source gives them in different places.

As for `CC(Cc1ccccc1)C(=O)Nc1ccc(Cl)cc1C(=O)O` (centres unmarked) [MMV1579781], the activity at 25 µM was determined as 92.5% under setting [1], 104% under setting [2], 93.1% under setting [3] and 80.7% under setting [4]. Moreover, the activity at 100 µM under setting [5] was 85.9%, the activity at 100 µM under setting [6] was 87.4% and the activity at 100 µM under setting [7] was 88.1%. The Percent fungal survival at 100 µM (replicate 2) is 82.1%.
With `C[N+]1(C)CCCC(OC(=O)C(O)(c2ccccc2)c2ccccc2)C1` (centres unmarked) [MMV002676], the activity at 25 µM runs as follows: under setting [8], 79.3%; under setting [2], 73.4%; under setting [3], 85.9%; under setting [4], 78.5%. Besides, the activity at 100 µM was found to be 79.9% under setting [9], 85.5% under setting [10], 72.6% under setting [11] and 81.5% under setting [12].
`CC(C)Oc1cccc(NC(=O)c2ccccc2C(F)(F)F)c1` [MMV1009286]: the activity at 25 µM stood at 61% under setting [13], 87.9% under setting [2], 37.1% under setting [3] and 58% under setting [4]. Further, the activity at 100 µM under setting [14] came to 39%, the activity at 100 µM under setting [15] came to 26.3%, the activity at 100 µM under setting [16] amounted to 52.4% and the activity at 100 µM under setting [17] was found to be 38.1%.
As to `CC(=O)O[C@H]1C[C@@]2(C)[C@@H](C[C@@H](O)[C@H]3[C@@]4(C)CC[C@@H](O)[C@@H](C)[C@@H]4CC[C@@]32C)/C1=C(\CCC=C(C)C)C(=O)O` [MMV1578575], the activity at 25 µM worked out at 83.8% under setting [18], 96.4% under setting [19], 83.3% under setting [20] and 71.6% under setting [21]. In addition, the activity at 100 µM under setting [22] is 84.3%, the activity at 100 µM under setting [23] is 78.5% and the activity at 100 µM under setting [25] is 84.8%. For the same molecule, under setting [24], the Percent fungal survival at 100 µM came to 89.6%.
Take `CN(O)C(=O)c1cc2c(CN3CCC[C@H]3C(N)=O)cn(Cc3ccc(F)cc3)c2cn1` [MMV1782386]: the activity at 25 µM by setting is: under setting [26], 91.7%; under setting [27], 95%; under setting [28], 96.1%; under setting [29], 84%. Further, the activity at 100 µM is, setting by setting: under setting [30], 86%; under setting [31], 87.4%; under setting [32], 91.4%; under setting [33], 79.3%.
For the molecule `CC(=O)N[C@H](C)C(=O)N[C@H](Cc1ccccc1)C(=O)O` [MMV1580845], the activity at 25 µM was determined as 87.9% under setting [1], 86.4% under setting [2], 86.8% under setting [3] and 90.5% under setting [4]. For the same molecule, the activity at 100 µM is, setting by setting: under setting [5], 86.9%; under setting [6], 88.3%; under setting [7], 88.3%. Further, under “replicate 2”, the Percent fungal survival at 100 µM came to 84.1%.
With `Cc1onc(-c2ccccc2Cl)c1C(=O)N[C@@H]1C(=O)N2[C@@H]1SC(C)(C)[C@@H]2C(=O)O` [MMV002740], the activity at 25 µM was 65.2% under setting [18], 60.8% under setting [19], 53.9% under setting [20] and 80.9% under setting [21]. Moreover, the activity at 100 µM by setting is: under setting [22], 92.7%; under setting [23], 88.1%; under setting [25], 112%. Moreover, the Percent fungal survival at 100 µM under setting [24] was 77.7%.
On to `NC(=O)c1ccccc1NC(=O)c1ccc(C(=O)Nc2ccccc2C(N)=O)cc1` [MMV508427], for which the activity at 25 µM is, setting by setting: under setting [18], 86.7%; under setting [19], 92%; under setting [20], 87.7%; under setting [21], 80.3%. Besides, the activity at 100 µM was 95.7% under setting [22], 98.6% under setting [23] and 95.8% under setting [25]. Also, under setting [24], the Percent fungal survival at 100 µM worked out at 92.7%.
With `CCOC(=O)N1CCN(c2ccc(Cl)cc2)CC1` [MMV1578898], the activity at 25 µM by setting is: under setting [8], 83.5%; under setting [2], 91.8%; under setting [3], 91.8%; under setting [4], 66.9%. The activity at 100 µM was determined as 47.7% under setting [9], 38.1% under setting [10], 63.1% under setting [11] and 42% under setting [12].
Regarding `Cc1nc(N(C)C(=O)Cc2ccc(-c3ccccn3)cc2)sc1S(N)(=O)=O` [MMV1580486], the activity at 25 µM reads like this: under setting [26], 82.6%; under setting [27], 102%; under setting [28], 96.5%; under setting [29], 49.6%. For the same molecule, the activity at 100 µM reads like this: under setting [30], 83.5%; under setting [31], 93.3%; under setting [32], 93.6%; under setting [33], 63.7%.
Consider `CCc1ccccc1OCCN1CCCCCC1` [MMV1633962], for which the activity at 25 µM turned out to be 60.1% under setting [1], 47.9% under setting [2], 69.8% under setting [3] and 62.5% under setting [4]. The activity at 100 µM is, setting by setting: (first replicate column, read-out: Percentage survival at 100um, 100 uM A) 61.1%; under setting [5], 61.5%; (second replicate column, read-out: Percentage survival at 100um, 100 uM A) 62.7%; (third replicate column, read-out: Percentage survival at 100um, 100 uM A) 60.6%.
On to `Cc1cc(NS(=O)(=O)c2ccc(-c3ccc(F)cc3F)cc2)no1` [MMV1782217], for which the activity at 25 µM stood at 78.8% under setting [13], 76.3% under setting [2], 79.1% under setting [3] and 81.1% under setting [4]. Also, the activity at 100 µM amounted to 93.7% under setting [14], 83.4% under setting [15], 76.4% under setting [16] and 121% under setting [17].
Turning to `CCCCCc1ccc(C(=O)NCCn2cc(CCCCCc3cnc(N)[nH]3)nn2)cc1` [MMV1580847], the activity at 25 µM reads like this: under setting [1], 63.2%; under setting [2], 58%; under setting [3], 61.7%; under setting [4], 70%. Also, the activity at 100 µM is, setting by setting: under setting [5], 64.8%; under setting [6], 67%; under setting [7], 32.1%. The Percent fungal survival at 100 µM (replicate 2) is 95.2%.
As to `COc1nc2ccc(Br)cc2cc1[C@@H](c1ccccc1)[C@@](O)(CCN(C)C)c1cccc2ccccc12` [MMV689758], the activity at 25 µM reads like this: under setting [1], 98.1%; under setting [2], 102%; under setting [3], 87.7%; under setting [4], 104%. Besides, the activity at 100 µM is, setting by setting: under setting [5], 84.6%; under setting [6], 80.8%; under setting [7], 97.2%. In addition, the Percent fungal survival at 100 µM (replicate 2) is 75.9%.
Turning to `N=C(N)c1ccc(COc2ccc(Cl)cc2)cc1` [MMV1579844], the activity at 25 µM runs as follows: under setting [18], 73%; under setting [19], 69.6%; under setting [20], 72.8%; under setting [21], 76.5%. Further, the activity at 100 µM by setting is: under setting [22], 73.6%; under setting [23], 55.9%; under setting [25], 67.2%. The Percent fungal survival at 100 µM under setting [24] is 97.7%.
`Nc1nc(O)ncc1F` [MMV004508]: the activity at 25 µM came out at 84% under setting [13], 87.6% under setting [2], 87.9% under setting [3] and 76.6% under setting [4]. The activity at 100 µM was 89.4% under setting [14], 93.5% under setting [15], 81.4% under setting [16] and 93.4% under setting [17].
